Like-named read-outs stand apart in the source and are kept apart here.
Assays:
AP-1060 (ETV6-NTRK3) = experiment: Cell viability assay; conditions: read-out: IC50 in cell proliferation assay
[1] = biological target: panel of 255 wild-type kinases (Homo sapiens, UniProt Q15119); conditions: kinase PDHK2; 1 µmol/L single concentration; ref DOI: 10.1371/journal.pone.0092146; cited from earlier work
[2] = biological target: panel of 255 wild-type kinases (Homo sapiens, UniProt Q9UBS0); conditions: p70S6Kβ; 1 µmol/L single concentration; ref DOI: 10.1371/journal.pone.0092146; cited from earlier work
[3] = biological target: T1, panel of 255 wild-type kinases (Homo sapiens, UniProt O15264); conditions: p38δ; 1 µmol/L single concentration; ref DOI: 10.1371/journal.pone.0092146; cited from earlier work
T1 sequence (O15264 1-365): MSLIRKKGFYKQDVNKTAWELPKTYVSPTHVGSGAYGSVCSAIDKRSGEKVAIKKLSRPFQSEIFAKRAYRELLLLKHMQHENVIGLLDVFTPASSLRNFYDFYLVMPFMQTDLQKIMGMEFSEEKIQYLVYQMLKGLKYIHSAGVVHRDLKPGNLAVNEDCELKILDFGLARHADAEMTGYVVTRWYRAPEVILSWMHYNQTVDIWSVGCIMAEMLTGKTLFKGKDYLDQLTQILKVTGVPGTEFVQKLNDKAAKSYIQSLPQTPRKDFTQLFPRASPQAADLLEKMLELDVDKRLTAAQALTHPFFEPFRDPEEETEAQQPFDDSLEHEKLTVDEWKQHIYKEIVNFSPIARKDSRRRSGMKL

[4] = biological target: panel of 255 wild-type kinases (Homo sapiens, UniProt Q9P286); conditions: PAK5; 1 µmol/L single concentration; ref DOI: 10.1371/journal.pone.0092146; cited from earlier work
134 cancer cell lines [5] = test system: 134 cancer cell lines
134 cancer cell lines [6] = experiment: Cell viability assay (ATPlite, 72 hours), IC50 on cancer cell line panel

CCCS(=O)(=O)Nc1ccc(F)c(C(=O)c2c[nH]c3ncc(-c4ccc(Cl)cc4)cc23)c1F [vemurafenib]
IC50 (AP-1060 (ETV6-NTRK3)): 31.6 µM | %-inhibition at 1 µmol/L, PDHK2 [1]: 3.73% | %-inhibition, p70S6Kβ [2]: 0.235% | %-inhibition, p38δ [3]: 8% | %-inhibition, PAK5 [4]: -1.23% | IC50 (134 cancer cell lines [5]): > 31.6 µM | IC50 (134 cancer cell lines [6]; HEC-6, read-out: IC50 in cell proliferation assay, HEC-6 cell line (EGFR p.A289V)): > 31.6 µM | IC50 (134 cancer cell lines [6]; Homo sapiens, 769-P, read-out: IC50 in cell proliferation assay, cell line 769-P): > 31.6 µM | IC50 (134 cancer cell lines [6]; Homo sapiens, 786-0, read-out: IC50 in cell proliferation assay, cell line 786-O): 25.1 µM | IC50 (134 cancer cell lines [6]; Homo sapiens, A 172, read-out: IC50 in cell proliferation assay, cell line A-172): > 31.6 µM | IC50 (134 cancer cell lines [6]; Homo sapiens, A204, read-out: IC50 in cell proliferation assay, cell line A-204): > 31.6 µM | IC50 (134 cancer cell lines [6]; Homo sapiens, A498, read-out: IC50 in cell proliferation assay, cell line A-498): 21.6 µM | IC50 (134 cancer cell lines [6]; Homo sapiens, A549, read-out: IC50 in cell proliferation assay, cell line A-549): 31.2 µM | IC50 (134 cancer cell lines [6]; Homo sapiens, A704, read-out: IC50 in cell proliferation assay, cell line A-704): > 31.6 µM | IC50 (134 cancer cell lines [6]; Homo sapiens, A-375, read-out: IC50 in cell proliferation assay, cell line A-375 (BRAF p.V600E)): 1.76 µM | IC50 (134 cancer cell lines [6]; Homo sapiens, A-427, read-out: IC50 in cell proliferation assay, cell line A-427): > 31.6 µM | IC50 (134 cancer cell lines [6]; Homo sapiens, ACHN, read-out: IC50 in cell proliferation assay, cell line ACHN): 20.1 µM | IC50 (134 cancer cell lines [6]; Homo sapiens, AN3-CA, read-out: IC50 in cell proliferation assay, cell line AN3-CA (FGFR2 p.N549K)): > 31.6 µM | IC50 (134 cancer cell lines [6]; Homo sapiens, ASPC1, read-out: IC50 in cell proliferation assay, cell line AsPC-1): > 31.6 µM | IC50 (134 cancer cell lines [6]; Homo sapiens, AU565, read-out: IC50 in cell proliferation assay, cell line AU565 (ERBB2 amplification)): > 31.6 µM | IC50 (134 cancer cell lines [6]; Homo sapiens, BT-20, read-out: IC50 in cell proliferation assay, cell line BT-20): > 31.6 µM | IC50 (134 cancer cell lines [6]; Homo sapiens, BT-474, read-out: IC50 in cell proliferation assay, cell line BT-474 (ERBB2 amplification)): > 31.6 µM | IC50 (134 cancer cell lines [6]; Homo sapiens, BT-549, read-out: IC50 in cell proliferation assay, cell line BT-549): 31.2 µM | IC50 (134 cancer cell lines [6]; Homo sapiens, BXPC-3, read-out: IC50 in cell proliferation assay, cell line BxPC-3): 28.2 µM | IC50 (134 cancer cell lines [6]; Homo sapiens, C-33-A, read-out: IC50 in cell proliferation assay, cell line C-33 A): > 31.6 µM | IC50 (134 cancer cell lines [6]; Homo sapiens, CAL-27, read-out: IC50 in cell proliferation assay, cell line CAL-27): > 31.6 µM | IC50 (134 cancer cell lines [6]; Homo sapiens, CCF-STTG1, read-out: IC50 in cell proliferation assay, cell line CCF-STTG1): > 31.6 µM | IC50 (134 cancer cell lines [6]; Homo sapiens, CCRF-CEM, read-out: IC50 in cell proliferation assay, cell line CCRF-CEM): 27.6 µM | IC50 (134 cancer cell lines [6]; Homo sapiens, COLO 205, read-out: IC50 in cell proliferation assay, cell line COLO 205 (BRAF p.V600E)): 0.744 µM | IC50 (134 cancer cell lines [6]; Homo sapiens, COLO-829, read-out: IC50 in cell proliferation assay, cell line COLO 829 (BRAF p.V600E)): 2.22 µM | IC50 (134 cancer cell lines [6]; Homo sapiens, DLD-1, read-out: IC50 in cell proliferation assay, cell line DLD-1): > 31.6 µM | IC50 (134 cancer cell lines [6]; Homo sapiens, DU-4475, read-out: IC50 in cell proliferation assay, cell line DU4475 (BRAF p.V600E)): 1.83 µM | IC50 (134 cancer cell lines [6]; Homo sapiens, Daoy, read-out: IC50 in cell proliferation assay, cell line Daoy): > 31.6 µM | IC50 (134 cancer cell lines [6]; Homo sapiens, DoTc2-4510, read-out: IC50 in cell proliferation assay, cell line DoTc2 4510): > 31.6 µM | IC50 (134 cancer cell lines [6]; Homo sapiens, EOL1, read-out: IC50 in cell proliferation assay, cell line EoL-1 (FIP1L1-PDGFRA)): 1.62 µM | IC50 (134 cancer cell lines [6]; Homo sapiens, FaDu, read-out: IC50 in cell proliferation assay, cell line FaDu): > 31.6 µM | IC50 (134 cancer cell lines [6]; Homo sapiens, G-361, read-out: IC50 in cell proliferation assay, cell line G-361 (BRAF p.V600E)): 3.25 µM | IC50 (134 cancer cell lines [6]; Homo sapiens, HCC827, read-out: IC50 in cell proliferation assay, cell line HCC827 (EGFR exon19del)): > 31.6 µM | IC50 (134 cancer cell lines [6]; Homo sapiens, HCC4006, read-out: IC50 in cell proliferation assay, cell line HCC4006 (EGFR exon19del)): > 31.6 µM | IC50 (134 cancer cell lines [6]; Homo sapiens, HCT-15, read-out: IC50 in cell proliferation assay, cell line HCT 15): > 31.6 µM | IC50 (134 cancer cell lines [6]; Homo sapiens, HCT-116, read-out: IC50 in cell proliferation assay, cell line HCT 116): > 31.6 µM | IC50 (134 cancer cell lines [6]; Homo sapiens, HEC-1, read-out: IC50 in cell proliferation assay, HEC-1 cell line): > 31.6 µM | IC50 (134 cancer cell lines [6]; Homo sapiens, HEC-1B, read-out: IC50 in cell proliferation assay, HEC-1-B cell line (EGFR p.A864V)): > 31.6 µM | IC50 (134 cancer cell lines [6]; Homo sapiens, HL-60, read-out: IC50 in cell proliferation assay, HL-60 cell line): > 31.6 µM | IC50 (134 cancer cell lines [6]; Homo sapiens, HT, read-out: IC50 in cell proliferation assay, HT cell line): > 31.6 µM | IC50 (134 cancer cell lines [6]; Homo sapiens, HT-1080, read-out: IC50 in cell proliferation assay, HT-1080 cell line): 9.43 µM | IC50 (134 cancer cell lines [6]; Homo sapiens, Hs746T, read-out: IC50 in cell proliferation assay, Hs 746.T cell line (MET exon14skip + amplification)): > 31.6 µM | IC50 (134 cancer cell lines [6]; Homo sapiens, Hs-578T, read-out: IC50 in cell proliferation assay, Hs 578T cell line): 30.6 µM | IC50 (134 cancer cell lines [6]; Homo sapiens, HuTu80, read-out: IC50 in cell proliferation assay, HuTu 80 cell line): > 31.6 µM | IC50 (134 cancer cell lines [6]; Homo sapiens, J82, read-out: IC50 in cell proliferation assay, J82 cell line): > 31.6 µM | IC50 (134 cancer cell lines [6]; Homo sapiens, Jurkat E6.1, read-out: IC50 in cell proliferation assay, Jurkat E6.1 cell line): 28.3 µM | IC50 (134 cancer cell lines [6]; Homo sapiens, K562, read-out: IC50 in cell proliferation assay, K-562 cell line): > 31.6 µM | IC50 (134 cancer cell lines [6]; Homo sapiens, KATO III, read-out: IC50 in cell proliferation assay, KATO III cell line (FGFR2 amplification)): 20.7 µM | IC50 (134 cancer cell lines [6]; Homo sapiens, KG-1, read-out: IC50 in cell proliferation assay, KG-1 cell line (FGFR1OP2-FGFR1)): > 31.6 µM | IC50 (134 cancer cell lines [6]; Homo sapiens, KLE, read-out: IC50 in cell proliferation assay, KLE cell line): > 31.6 µM | IC50 (134 cancer cell lines [6]; Homo sapiens, KMS-11, read-out: IC50 in cell proliferation assay, KMS-11 cell line (FGFR3 p.Y373C)): 29.5 µM | IC50 (134 cancer cell lines [6]; Homo sapiens, KU812, read-out: IC50 in cell proliferation assay, Ku812 cell line): 28.5 µM | IC50 (134 cancer cell lines [6]; Homo sapiens, Kasumi 1, read-out: IC50 in cell proliferation assay, Kasumi-1 cell line (KIT p.N822K)): > 31.6 µM | IC50 (134 cancer cell lines [6]; Homo sapiens, LC-2-ad, read-out: IC50 in cell proliferation assay, LC-2/ad cell line (CCDC6-RET)): > 31.6 µM | IC50 (134 cancer cell lines [6]; Homo sapiens, LNCaP-Clone-FGC, read-out: IC50 in cell proliferation assay, LNCaP clone FGC cell line): > 31.6 µM | IC50 (134 cancer cell lines [6]; Homo sapiens, LS174T, read-out: IC50 in cell proliferation assay, LS174T cell line): > 31.6 µM | IC50 (134 cancer cell lines [6]; Homo sapiens, LS-411N, read-out: IC50 in cell proliferation assay, LS411N cell line (BRAF p.V600E)): 1.28 µM | IC50 (134 cancer cell lines [6]; Homo sapiens, LoVo, read-out: IC50 in cell proliferation assay, LoVo cell line): > 31.6 µM | IC50 (134 cancer cell lines [6]; Homo sapiens, MCF7, read-out: IC50 in cell proliferation assay, MCF-7 cell line): > 31.6 µM | IC50 (134 cancer cell lines [6]; Homo sapiens, MDA-MB-231, read-out: IC50 in cell proliferation assay, MDA-MB-231 cell line): > 31.6 µM | IC50 (134 cancer cell lines [6]; Homo sapiens, MDA-MB-453, read-out: IC50 in cell proliferation assay, MDA-MB-453 cell line): > 31.6 µM | IC50 (134 cancer cell lines [6]; Homo sapiens, MDA-MB-468, read-out: IC50 in cell proliferation assay, MDA-MB-468 cell line): > 31.6 µM | IC50 (134 cancer cell lines [6]; Homo sapiens, MG-63, read-out: IC50 in cell proliferation assay, MG-63 cell line): > 31.6 µM

Reference: article PMC9516332 (Frontiers in Oncology, 2022)
